Key:
mitochondrial function = settings: cited from earlier work
red blood cell membranes = settings: cited from earlier work
breast cancer cells = settings: cited from earlier work
[1] = system: diet-induced obese mice modeling type 2 diabetes; settings: daily oral, approximately 12 weeks; cited from earlier work
[2] = system: human cell systems mimicking various disease states; settings: cited from earlier work
[3] = system: AMP-activated protein kinase (AMPK); settings: cited from earlier work
Cannabinoid receptor 2 = Cannabinoid receptor 2 (Homo sapiens, UniProt P34972); assay: Receptor-based pharmacological activity, agonist; type: biochemical; settings: for EC50: read-out: RC50 (EC50); for Pharmacological activity at cannabinoid receptor 2: at approximately 1 to 20 μM
Chain of Cannabinoid receptor 2 (P34972 whole entry): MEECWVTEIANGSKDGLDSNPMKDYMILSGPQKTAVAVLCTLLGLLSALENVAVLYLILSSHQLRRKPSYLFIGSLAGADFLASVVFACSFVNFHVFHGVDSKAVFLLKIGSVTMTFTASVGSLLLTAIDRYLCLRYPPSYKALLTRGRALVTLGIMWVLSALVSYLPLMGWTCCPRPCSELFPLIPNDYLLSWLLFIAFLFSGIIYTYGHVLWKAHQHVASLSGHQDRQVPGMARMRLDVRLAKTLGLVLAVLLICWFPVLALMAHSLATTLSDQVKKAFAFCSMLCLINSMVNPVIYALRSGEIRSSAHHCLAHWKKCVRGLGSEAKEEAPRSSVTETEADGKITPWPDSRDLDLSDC
Procedure: (§1) Methods for this study have been previously described (Venn-Watson, S., Lumpkin, R., Dennis, E. A. Efficacy of dietary odd-chain saturated fatty acid pentadecanoic acid parallels broad associated health benefits in humans: could it be essential? Sci Rep 10:8161 (2020)). Significant activities of pentadecanoylcarnitine were those tagged as having maximum pharmacological activities that were greater than or equal to 70% that of the internal control between the concentrations of 1 to 20 μM. Significant pharmacological activities caused by pentadecanoylcarnitine were compared with results from the same assays using pentadecanoic acid (C15:0).

[4] = target: T1, Cholinergic receptor muscarinic 2 (Homo sapiens, UniProt P08172); assay: Receptor-based pharmacological activity, agonist; type: biochemical; settings: positive control Acetylcholine chloride; for EC50: read-out: RC50 (EC50)
T1 sequence (P08172 1-466): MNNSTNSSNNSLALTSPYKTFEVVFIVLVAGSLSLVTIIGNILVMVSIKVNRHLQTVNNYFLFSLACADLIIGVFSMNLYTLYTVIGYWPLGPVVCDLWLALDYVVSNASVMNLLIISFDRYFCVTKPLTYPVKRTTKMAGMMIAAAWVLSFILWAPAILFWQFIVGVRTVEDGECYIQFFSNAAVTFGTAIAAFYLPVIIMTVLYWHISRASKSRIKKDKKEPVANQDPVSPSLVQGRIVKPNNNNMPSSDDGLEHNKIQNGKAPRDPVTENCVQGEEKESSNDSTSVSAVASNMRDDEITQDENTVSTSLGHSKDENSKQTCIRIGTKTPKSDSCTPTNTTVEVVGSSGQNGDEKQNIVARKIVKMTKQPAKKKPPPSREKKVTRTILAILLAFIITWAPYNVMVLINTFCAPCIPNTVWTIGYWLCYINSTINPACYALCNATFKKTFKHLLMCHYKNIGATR
Procedure: as §1

[5] = system: in vivo model of nonalcoholic fatty liver disease; settings: daily supplementation over 11 weeks; cited from earlier work
[6] = system: peroxisome proliferator-activated receptor (PPAR) α/δ; settings: cited from earlier work
4H cell system = assay: Human primary cell phenotypic profiling, 4H cell system (autoimmunity, allergy, asthma); type: cell-based; settings: 6.7 μM stated for pentadecanoylcarnitine, NS = not significant
Procedure: (§2) Methods for this human primary cell phenotypic profiling study were those previously described (Venn-Watson, S., Lumpkin, R., Dennis, E. A. Efficacy of dietary odd-chain saturated fatty acid pentadecanoic acid parallels broad associated health benefits in humans: could it be essential? Sci Rep 10:8161 (2020)). Significant activities of pentadecanoylcarnitine were those that were equal to or greater than 0.1|log 10| at 6.7 μM. Biomarkers with significant changes caused by pentadecanoylcarnitine were compared with results from the same study using pentadecanoic acid (C15:0).

CASM3C cell system = assay: Human primary cell phenotypic profiling, CASM3C cell system (cardiovascular inflammation, restenosis); type: cell-based; settings: 6.7 μM stated for pentadecanoylcarnitine
Procedure: as §2

HDF3CGF cell system = assay: Human primary cell phenotypic profiling, HDF3CGF cell system (fibrosis, chronic inflammation); type: cell-based; settings: 6.7 μM stated for pentadecanoylcarnitine
Procedure: as §2

BE3C cell system = assay: Human primary cell phenotypic profiling, BE3C cell system (COPD, lung inflammation); type: cell-based; settings: 6.7 μM stated for pentadecanoylcarnitine
Procedure: as §2

KF3CT cell system = assay: Human primary cell phenotypic profiling, KF3CT cell system (dermatitis, psoriasis); type: cell-based; settings: 6.7 μM stated for pentadecanoylcarnitine
Procedure: as §2

LPS cell system = assay: Human primary cell phenotypic profiling, LPS cell system (chronic inflammation, cardiovascular disease); type: cell-based; settings: 6.7 μM stated for pentadecanoylcarnitine
Procedure: as §2

MyoF cell system = assay: Human primary cell phenotypic profiling, MyoF cell system (wound healing, matrix remodeling, fibrosis); type: cell-based; settings: 6.7 μM stated for pentadecanoylcarnitine
Procedure: as §2

SAg cell system = assay: Human primary cell phenotypic profiling, SAg cell system (chronic inflammation, autoimmune disease); type: cell-based; settings: 6.7 μM stated for pentadecanoylcarnitine
Procedure: as §2

/IMphg cell system = assay: Human primary cell phenotypic profiling, /IMphg cell system (chronic inflammation, restenosis, cardiovascular disease); type: cell-based; settings: 6.7 μM stated for pentadecanoylcarnitine
Procedure: as §2

[7] = Agonist, positive control CP 55940

In the case of `CCCCCCCCCCCCCCC(=O)O` [Pentadecanoic acid (C15:0), Pentadecanoic acid], the “Effect on mitochondrial function” value (mitochondrial function) is given as “repair”, the “Effect on stability of red blood cell membranes” value (red blood cell membranes) is given as “improve” and the “Effect on proliferation of breast cancer cells” value (breast cancer cells) is given as “decrease”. For the same molecule, the “Body weight gain compared to non-supplemented controls” value [1] was “lower”, the “Cholesterol compared to non-supplemented controls” value [1] was “lower” and the “Glucose compared to non-supplemented controls” value [1] was “lower”. For the same molecule, the “Pro-inflammatory cytokines compared to non-supplemented controls” value [1] was “lower”, the “Properties in human cell systems mimicking various disease states” value [2] was “anti-inflammatory and antifibrotic properties” and the AMPK activity [3] was “activator”. The Emax (Cannabinoid receptor 2; Agonist, positive control CP 55940, 1 to 20 μM, read-out: Max Response (%) Compared to Positive Control) was 22%, the EC50 (Cannabinoid receptor 2; [7]) was > 20 µM and the Emax ([4]; 1 to 20 μM, read-out: Max Response (%) Compared to Positive Control) was 2%. The EC50 [4] was > 20 µM, the Anemia [5] was “attenuated” and the Cholesterol [5] was “lowered”. The Inflammation [5] was “lowered”, the Liver fibrosis [5] was “attenuated” and the Triglycerides [5] was “lowered”. The “PPAR α/δ agonist activity” value [6] was “dual, partial”.
In the case of `CCCCCCCCCCCCCCC(=O)O[C@H](CC(=O)[O-])C[N+](C)(C)C` [Pentadecanoylcarnitine, pentadecanoylcarnitine], the VEGFR2 biomarker change (4H cell system) is reported as −0.11 log 10, the Proliferation change (CASM3C cell system) is reported as “+0.10 log 10” and the MMP-1 biomarker change (HDF3CGF cell system) is reported as −0.12 log 10. For the same molecule, the CXCL8/IL-8 biomarker change (BE3C cell system) was −0.21 log 10, the CXCL9/MIG biomarker change (BE3C cell system) was −0.60 log 10 and the CXCL10/IP-10 biomarker change (BE3C cell system) was −0.10 log 10. The CXCL11/I-TAC biomarker change (BE3C cell system) was −0.54 log 10, the HLA-DR biomarker change (BE3C cell system) was −0.63 log 10 and the IL-1a biomarker change (BE3C cell system) was −0.19 log 10. It also gave an MMP-1 biomarker change (BE3C cell system) of −0.27 log 10, an MMP-9 biomarker change (BE3C cell system) of −0.34 log 10 and a PAI-1 biomarker change (BE3C cell system) of −0.24 log 10. For the same molecule, the tPA biomarker change (BE3C cell system) was −0.43 log 10, the uPA biomarker change (BE3C cell system) was −0.28 log 10 and the uPAR biomarker change (BE3C cell system) was −0.12 log 10. The CXCL10/IP-10 biomarker change (KF3CT cell system) was −0.10 log 10, the “Tissue Factor biomarker change” value (LPS cell system) was “+0.11 log 10” and the “α-SM Actin biomarker change” value (MyoF cell system) was −0.26 log 10. For the same molecule, the “B-Cell Proliferation change” value (SAg cell system) was −0.17 log 10, the E-Selectin biomarker change (SAg cell system) was −0.11 log 10 and the MCP-1 biomarker change (/IMphg cell system) was −0.25 log 10. The sIL-10 biomarker change (/IMphg cell system) was −0.13 log 10, the “Max Response (%) Compared to Positive Control” value (Cannabinoid receptor 2; Agonist, positive control CP 55940, 1 to 20 μM) was 106% and the EC50 (Cannabinoid receptor 2; [7]) was 3.2 µM. For the same molecule, the “Pharmacological activity at cannabinoid receptor 2” value (Cannabinoid receptor 2) was “agonist”, the “Pharmacological activity at cannabinoid receptor 2” value (Cannabinoid receptor 2; listed as pentadecenoyl carnitine) was “fully activates” and the “Max Response (%) Compared to Positive Control” value ([4]; 1 to 20 μM) was 206%. The EC50 [4] was 3.9 µM.

— patent US12370166B2, “Pentadecanoylcarnitine for treatment of conditions related to the quality of aging and longevity” (EPITRACKER, INC., priority 2021, dated 2025)
